Data: US10448639B2, “Fungicidal pyrazoles” (FMC CORPORATION, priority 2009, dated 2019)
Where two headings read alike, the source gives them in different places.

Tests used:
Plasmopara viticola = assay: Test A: grape downy mildew, curative spray on inoculated grape seedlings, visual disease rating; type: in vivo; conditions: 100 = 100% disease control, 0 = no control relative to controls
From the text: Upon removal, visual disease ratings were made. […] A dash (-) indicates no test results.

Phytophthora infestans = type: in vivo; conditions: tomato late blight, 100 = 100% disease control
Rhizoctonia solani = assay: Test E: turf brown patch, preventive spray on creeping bent grass (Agrostis sp.) seedlings, disease rating; type: in vivo; conditions: 100 = 100% disease control; for Test E disease control rating: 0 = no disease control relative to controls
From the text: A dash (-) indicates no test results.

[1] = test system: Puccinia recondita f. sp. tritici; assay: Test I: wheat leaf rust, preventive spray on wheat seedlings, visual disease rating; conditions: for Test I rating (% disease control) / Test I disease control rating: wheat leaf rust, 100 = 100% disease control; for pest or weed control at 200 µg/mL: 192 h, read-out: Test I rating (% disease control); for Test I disease control rating: sprayed the day before inoculation, 0 = no disease control relative to controls
Botrytis cinerea = assay: Test B: tomato Botrytis, preventive spray on tomato seedlings, visual disease rating; conditions: for Test B rating (% disease control) / Test B disease control rating: tomato Botrytis, 100 = 100% disease control; for pest or weed control at 200 µg/mL: Botrytis cinerea, in Solanum lycopersicum, 120 h, read-out: Test B rating (% disease control); for Test B disease control rating: 0 = no disease control relative to controls
Septoria tritici = assay: Test G: wheat leaf blotch, preventive spray on wheat seedlings, visual disease rating; conditions: for Test G rating (% disease control) / Test G disease control rating: wheat leaf blotch, 100 = 100% disease control; for Test G rating (% disease control): preventive spray, 0 = no control; for pest or weed control at 200 µg/mL: Zymoseptoria tritici, in Triticum aestivum, 504 h, read-out: Test G rating (% disease control); for Test G disease control rating: sprayed the day before inoculation, 0 = no disease control relative to controls
Alternaria solani = assay: Test C: tomato early blight, preventive spray on tomato seedlings, visual disease rating; conditions: for Test C rating (% disease control) / Test C disease control rating: tomato early blight, 100 = 100% disease control; for pest or weed control at 200 µg/mL: Alternaria solani, in Solanum lycopersicum, 168 h, read-out: Test C rating (% disease control); for Test C disease control rating: 0 = no disease control relative to controls
[2] = test system: Erysiphe graminis f sp. tritici; assay: Test J: wheat powdery mildew, preventive spray on wheat seedlings, visual disease rating; conditions: for Test J rating (% disease control) / Test J disease control rating: wheat powdery mildew, 100 = 100% disease control; for pest or weed control at 200 µg/mL: Blumeria graminis, in Triticum aestivum, 192 h, read-out: Test J rating (% disease control); for Test J disease control rating: sprayed the day before inoculation, 0 = no disease control relative to controls
Septoria nodorum = assay: Test F: Septoria glume blotch, preventive spray on wheat seedlings, visual disease rating; conditions: for Test F rating (% disease control) / Test F disease control rating: 100 = 100% disease control; for pest or weed control at 200 µg/mL: Parastagonospora nodorum, in Triticum aestivum, 192 h, read-out: Test F rating (% disease control); for Test F disease control rating: 0 = no disease control relative to controls
From the text: General protocol for preparing test suspensions for Tests A-J: the test compounds were first dissolved in acetone in an amount equal to 3% of the final volume and then suspended at the desired concentration (in ppm) in acetone and purified water (50/50 mix by volume) containing 250 ppm of the surfactant Trem® 014 (polyhydric alcohol esters). The resulting test suspensions were then used in Tests A-J. Spraying a 200 ppm test suspension to the point of run-off on the test plants was the equivalent of a rate of 500 g/ha. Unless otherwise indicated, the rating values indicate a 200 ppm test suspension was used. (An asterisk “*” next to the rating value indicates a 40 ppm test suspension was used.)
The test suspension was sprayed to the point of run-off on wheat seedlings. The following day the seedlings were inoculated with a spore suspension of Septoria nodorum (the causal agent of Septoria glume blotch) and incubated in a saturated atmosphere at 24° C. for 48 h, and then moved to a growth chamber at 20° C. for 6 days, after which time visual disease ratings were made.

[3] = test system: Puccinia recondita f. sp. tritici; assay: Test H: wheat leaf rust, curative spray on inoculated wheat seedlings, visual disease rating; conditions: 144 h, read-out: Test H rating (% disease control)
[4] = preventive spray, 0 = no control
[5] = Septoria glume blotch on wheat, preventive spray, 0 = no control
[6] = 0 = no control relative to controls
[7] = preventive, 0 = no control relative to controls
[8] = Septoria glume blotch, 0 = no control relative to controls

SMILES | Test A rating (% disease control) (Plasmopara viticola; curative spray) | Test D rating (% disease control) (Phytophthora infestans; [4]) | Test E rating (% disease control) (Rhizoctonia solani; [4]) | Test I rating (% disease control) [1, 4] | Test B rating (% disease control) (Botrytis cinerea; [4]) | Test G rating (% disease control) (Septoria tritici) | Test C rating (% disease control) (Alternaria solani; [4]) | Test J rating (% disease control) [2, 4] | Test F rating (% disease control) (Septoria nodorum; [5]) | other results
Cc1nn(C)c(Nc2cc(F)cc(F)c2)c1-c1ccc(Cl)cc1 [compound 5] | 36% | 0% | 0% | 0% | 0% | 0% | 25% | 0% | 0% | 
Cc1nn(C)c(Nc2cccc(Cl)c2)c1-c1ccc(F)cc1F [Compound 1, N-(3-Chlorophenyl)-4-(2,4-difluorophenyl)-1,3-dimethyl-1H-pyrazol-5-amine] | 0% | 0% | 47% |  |  |  |  |  |  | pest or weed control at 200 µg/mL [1]: 0%; pest or weed control at 200 µg/mL (Botrytis cinerea): 99%; pest or weed control at 200 µg/mL (Septoria tritici): 99%; pest or weed control at 200 µg/mL (Alternaria solani): 0%; pest or weed control at 200 µg/mL [2]: 98%; pest or weed control at 200 µg/mL (Septoria nodorum): 0%
Cc1nn(C)c(Nc2ccc(F)cc2)c1-c1ccc(F)cc1Cl [compound 11] |  | 0% | 99% | 99% | 99% | 100% | 99% | 100% | 0% | 
Cc1nn(C)c(N(C)c2cccc(Cl)c2)c1-c1ccc(F)cc1F [compound 3] | 6% | 9% | 0% | 0% | 0% | 13% | 25% | 99% | 0% | 
COc1cc(Nc2c(-c3ccc(F)cc3F)c(C)nn2C)cc(OC)c1 [compound 2] | 8% | 0% | 0% | 0% | 1% | 0% | 0% | 0% | 0% | 
Cc1nn(C)c(Nc2ccc(F)cc2F)c1-c1ccc(Cl)cc1 [compound 4] | 29% | 0% | 0% | 53% | 87% | 98% | 46% | 97% | 0% | 
CCN(c1c(F)cc(F)cc1F)c1c(-c2ccc(F)cc2Cl)c(C)nn1C [compound 294] |  |  |  |  |  |  |  |  |  | Test A rating (% disease control) (Plasmopara viticola): 0%; Test D rating (% disease control) (Phytophthora infestans; [6]): 0%; Test E rating (% disease control) (Rhizoctonia solani; [6]): 80%; Test I rating (% disease control) [1, 7]: 0%; Test B rating (% disease control) (Botrytis cinerea; [6]): 98%; Test C rating (% disease control) (Alternaria solani; [6]): 0%; Test J rating (% disease control) [2, 6]: 84%; Test F rating (% disease control) (Septoria nodorum; [8]): 0%
Cc1nn(C)c(Nc2cc(F)cc(F)c2F)c1-c1ccc(Cl)cc1 [compound 10] |  | 0% | 0% | 0% | 47% | 0% | 0% | 0% | 0% | 
Cc1nn(C)c(Nc2ccc(F)c(Cl)c2)c1-c1ccc(F)cc1Cl [compound 7] | 29% | 0% | 63% | 74% | 99% | 100% | 0% | 92% | 0% | 
Cc1nn(C)c(N(c2c(F)cc(F)cc2F)S(C)(=O)=O)c1-c1ccc(F)cc1Cl [compound 304] |  |  |  |  |  |  |  |  |  | Test E disease control rating (Rhizoctonia solani): 0%; Test I disease control rating [1]: 0%; Test B disease control rating (Botrytis cinerea): 0%; Test G disease control rating (Septoria tritici): 16%; Test C disease control rating (Alternaria solani): 0%; Test J disease control rating [2]: 0%; Test F disease control rating (Septoria nodorum; Septoria glume blotch on wheat): 0%
Cc1nn(C)c(N(C)c2c(F)cc(F)cc2F)c1-c1ccc(F)cc1Cl [compound 293] |  |  |  |  |  |  |  |  |  | Test A rating (% disease control) (Plasmopara viticola): 0%; Test D rating (% disease control) (Phytophthora infestans; [6]): 0%; Test E rating (% disease control) (Rhizoctonia solani; [6]): 99%; Test I rating (% disease control) [1, 7]: 94%; Test B rating (% disease control) (Botrytis cinerea; [6]): 97%; Test C rating (% disease control) (Alternaria solani; [6]): 47%; Test J rating (% disease control) [2, 6]: 99%; Test F rating (% disease control) (Septoria nodorum; [8]): 0%
Cc1nn(C)c(N(C)c2cc(F)cc(F)c2)c1-c1ccc(Cl)cc1 [compound 6] | 65% | 0% | 0% | 0% | 10% | 0% | 23% | 93% | 0% | 
COCN(c1c(F)cc(F)cc1F)c1c(-c2ccc(F)cc2Cl)c(C)nn1C [compound 309] |  |  |  |  |  |  |  |  |  | Test E disease control rating (Rhizoctonia solani): 92%; Test I disease control rating [1]: 0%; Test B disease control rating (Botrytis cinerea): 97%; Test G disease control rating (Septoria tritici): 100%; Test C disease control rating (Alternaria solani): 61%; Test J disease control rating [2]: 99%; Test F disease control rating (Septoria nodorum; Septoria glume blotch on wheat): 60%
Cc1nn(C)c(Nc2ccccc2F)c1-c1ccc(F)cc1Cl [compound 12] |  | 0% | 99% | 99% | 99% | 100% | 93% | 100% | 0% | 
Cc1nn(C)c(Nc2ccc(F)cc2F)c1-c1ccc(F)cc1Cl [compound 13] |  | 0% | 98% | 100% | 99% | 100% | 100% | 99% | 64% | 
COc1ccc(Nc2c(-c3ccc(F)cc3Cl)c(C)nn2C)cc1 [compound 288] |  |  |  |  |  |  |  |  |  | Test A rating (% disease control) (Plasmopara viticola): 9%; Test D rating (% disease control) (Phytophthora infestans; [6]): 0%; Test E rating (% disease control) (Rhizoctonia solani; [6]): 92%; Test I rating (% disease control) [1, 7]: 74%; Test B rating (% disease control) (Botrytis cinerea; [6]): 99%; Test C rating (% disease control) (Alternaria solani; [6]): 52%; Test J rating (% disease control) [2, 6]: 92%; Test F rating (% disease control) (Septoria nodorum; [8]): 0%
Cc1nn(C)c(Nc2cc(F)cc(F)c2)c1-c1ccc(F)cc1Cl [compound 9] |  | 0% | 55% | 98% | 99% | 100% | 0% | 97% | 0% | 
Cc1nn(C)c(Oc2ccc(C#N)cc2F)c1-c1ccc(F)cc1Cl [Compound 118, 4-[[4-(2-chloro-4-fluorophenyl)-1,3-dimethyl-1H-pyrazol-5-yl]oxy]-3-fluorobenzonitrile] |  |  |  |  |  |  |  |  |  | pest or weed control at 200 µg/mL [1]: 100%; pest or weed control at 200 µg/mL (Botrytis cinerea): 100%; pest or weed control at 200 µg/mL (Septoria tritici): 100%; pest or weed control at 200 µg/mL (Alternaria solani): 100%; pest or weed control at 200 µg/mL [2]: 99%; pest or weed control at 200 µg/mL (Septoria nodorum): 98%; pest or weed control at 200 µg/mL [3]: 99%
